PMC10354055, “An optimized Nurr1 agonist provides disease-modifying effects in Parkinson’s disease models” (Nature Communications, 2023)
Where “and” joins values, the source holds several entries; their conditions need not be identical. Equal entries are not always repeated. Where two headings read alike, the source gives them in different places.

Experiments:
Nurr1-LBD = biological target: T1, Nurr1-LBD (Mus musculus, UniProt Q06219); assay: Luciferase reporter assay, Nurr1-LBD, MN9D cells; type: cell-based
T1 construct: transfected with pCMV-fNurr1, pGAL-Nurr1(LBD), pGAL-Nor1(LBD) or pGAL-Nur77(LBD) and reporter construct; expressed in transfected cells; host or cells: SK-N-BE(2)C (human neuroblastoma), N27-A (rat dopaminergic), MN9D (murine dopaminergic)
From the text: Nurr1 transactivity was normalized to β-galactosidase activity.

Nor1 = biological target: T2, Nor1 (Homo sapiens, UniProt Q92570); assay: Luciferase reporter assay, Nor1 LBD, SK-N-BE(2)C cells; type: cell-based; settings: Fig. 1f; CQ 100 µM, 4A7C-301 20 µM, PGA1 10 µM
T2 construct: using LBD of NR4A subfamily members in SK-N-BE(2)C cells; expressed in transfected cells; host or cells: SK-N-BE(2)C

[1] = system: AAV-αSyn-induced male mice; assay: Olfactory discrimination test, AAV-αSyn-induced PD model mice; type: in vivo, mouse
From the text: Adeno-associated viruses (AAVs) expressing GFP only or αSyn (wild-type or A53T) were kindly provided by Dr. Yoon Seong Kim from the University of Central Florida. Recombinant AAV vectors were produced using modified pAAV-IRES-hrGFP (Agilent) to express wild-type and mutant human αSyn under control of the CMV promoter. Viral particles (AAV2) were produced at the University of Iowa Viral Vector Core according to standard operating procedures (https://medicine.uiowa.edu/vectorcore/). […] AAV vectors were delivered into the substantia nigra unilaterally by stereotaxic surgery.
The olfactory discrimination test was designed based on Prediger et al.. Briefly, mice were placed in a chamber (40 (w) × 20 (d) × 20 (h) cm) segmented with two identical compartments containing fresh sawdust (non-familiar odor) on one side and unchanged sawdust (familiar odor; maintained for 3 days before the test) on the other side. Mice could choose between one or another area by freely passing through an open door, for 5 min. Mice movements were monitored with EthoVision XT version 7.0 (Noldus) and time (s) and distance (cm) traveled in each compartment were recorded and analyzed.

N27-A cells = assay: Autophagic flux, Western blot LC3B and p62, N27-A cells; type: cell-based, rat; settings: for Relative LC3B-II experession (normalized to β-actin): individual replicates; for autophagic flux (in words): N27-A
Procedure: Experiments were confirmed by duplicate measurements of the same sample. Quantification of immunoreactive bands was performed using ImageJ software (NIH, Bethesda, MD, USA) and expressed as a relative ratio against β-actin.
The band intensities were quantified using ImageJ and normalized against β-actin.

[2] = BBB permeability assay, plasma and brain LC-MS/MS after oral administration; type: in vivo, rat;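 for plasma: oral dosing solution 2 mg/mL in saline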
Procedure: Final dose of […] 4A7C-301 dissolved in saline was orally administrated to SD rats (male, 7-9 weeks, n = 3 per group). To measure the 4A7C-301 concentration in the brain, rats were fully exsanguinated to remove residual blood prior to brain collection. Brain and blood samples were collected at 0.25, 0.5, 1, 2, 4, 6, 8, and 24 h after administration. A robust LC-MS/MS method was developed with the lower limit of quantification (LLOQ) of 1 ng/mL and 0.5 ng/mL for the quantification of 4A7C-301 in plasma and brain, respectively. The accuracy of all accepted QC samples of 4A7C-301 at low, middle, and high concentration levels met the acceptance criteria. Isolated brains were homogenized in PBS as brain weight (g) to PBS volume (mL) ratio 1:3. The desired serial concentrations of working solutions were achieved by diluting stock solution of analyte with 50% acetonitrile in water solution. 5 µL of working solutions (5, 10, 20, 50, 100, 500, 1000, 5000 ng/mL) were added to 50 μl of male SD rat blank brain homogenate to achieve calibration standards of 0.5 ~ 500 ng/mL (0.5, 1, 2, 5, 10, 50, 100, 500 ng/mL) in a total volume of 55 μl. Four quality control samples at 1.5 ng/mL, 3 ng/mL, 50 ng/mL and 400 ng/mL for brain homogenate were prepared independently of those used for the calibration curves. These QC samples were prepared on the day of analysis in the same way as calibration standards. 55 μl of standards, 55 μl of QC samples and 55 μl of unknown samples (50 µL of brain homogenate with 5 µL of blank solution) were added to 200 μl of acetonitrile containing IS mixture for precipitating protein, respectively. Then the samples were vortexed for 30 seconds. After centrifugation at 4 °C, 4000 x g for 15 min, the supernatant was diluted 5 times with water. 25 µl of diluted supernatant was injected into the LC-MS/MS system (AB API 5500 + LC-MS/MS instruments (Serial No. EX224682008)) for quantitative analysis. To measure the 4A7C-301 concentration in the plasma, serum samples were obtained from the collected blood and analyzed by LC-MS/MS system as indicated above.

[3] = time 00:15:00, individual replicates
[4] = time 0:30:00, individual replicates
[5] = time 1:00:00, individual replicates
[6] = time 2:00:00, individual replicates
[7] = time 4:00:00, individual replicates
[8] = time 6:00:00, individual replicates
[9] = time 8:00:00, individual replicates
[10] = time 24:00:00, individual replicates

T2 sequence (Q92570 394-623 limits assumed): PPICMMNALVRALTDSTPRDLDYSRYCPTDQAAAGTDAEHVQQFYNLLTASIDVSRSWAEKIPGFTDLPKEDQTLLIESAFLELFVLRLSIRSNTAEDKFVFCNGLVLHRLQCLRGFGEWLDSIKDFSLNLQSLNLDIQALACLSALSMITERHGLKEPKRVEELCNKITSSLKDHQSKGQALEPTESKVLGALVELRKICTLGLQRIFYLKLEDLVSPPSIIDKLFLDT
T1 sequence (Q06219 360-595 limits assumed): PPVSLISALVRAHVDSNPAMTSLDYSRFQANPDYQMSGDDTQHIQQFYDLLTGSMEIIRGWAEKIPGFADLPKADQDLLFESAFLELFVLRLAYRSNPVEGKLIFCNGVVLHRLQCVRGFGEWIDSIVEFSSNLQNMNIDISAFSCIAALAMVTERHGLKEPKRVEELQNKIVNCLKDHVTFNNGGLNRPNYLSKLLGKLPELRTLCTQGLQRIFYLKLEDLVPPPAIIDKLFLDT

Structure (SMILES): CCN1CCN(c2cc(N3CCN(CC)CC3)nc(NCCNc3ccnc4cc(Cl)ccc34)n2)CC1 [4A7C-301, N^1-(4,6-bis(4-ethylpiperazin-1-yl)pyrimidin-2-yl)-N^2-(7-chloroquinolin-4-yl)ethane-1,2-diamine]
- Luciferase activity (fold) (Nurr1-LBD; Fig. S3a, 0.001 µM): 1.103 fold and 1.1109 fold and 1.11 fold
- Luciferase activity (fold) (Nurr1-LBD; Fig. S3a, 0.01 µM): 2.094 fold and 2.1057 fold and 1.929 fold
- Luciferase activity (fold) (Nurr1-LBD; Fig. S3a, 0.1 µM): 4.339 fold and 4.261 fold and 4.17 fold
- Luciferase activity (fold) (Nurr1-LBD; Fig. S3a, 1 µM): 7.077 fold and 6.781 fold and 6.645 fold
- Luciferase activity (fold) (Nurr1-LBD; Fig. S3a, 10 µM): 6.849 fold and 6.689 fold and 7.128 fold
- Luciferase activity (fold) (Nurr1-LBD; Fig. S1d, conc. 1 µM, replicates): 6.4567 fold and 6.799 fold and 6.563 fold
- Luciferase activity (fold) (Nurr1-LBD; Fig. S1d, conc. 10 µM, replicates): 6.943 fold and 6.5332 fold and 6.663 fold
- Luciferase activity (fold) (Nurr1-LBD; Fig. S1d, conc. 10-1 µM, replicates): 3.61 fold and 3.7661 fold and 3.609 fold
- Luciferase activity (fold) (Nurr1-LBD; Fig. S1d, conc. 10-2 µM, replicates): 1.993 fold and 2.235 fold and 2.074 fold
- Luciferase activity (fold) (Nurr1-LBD; Fig. S1d, conc. 10-3 µM, replicates): 1.142 fold and 1.201 fold and 1.251 fold
- potency to activate Nurr1 relative to CQ (Nurr1-LBD; MN9D cells, Supplementary Fig. 3a,b): approximately 50 fold
- Luciferase activity (fold), Nor1 (Nor1): 3.28 fold and 3.108 fold and 3.492 fold
- olfactory dysfunction (in words) ([1]; αSynA53T-mice): significantly reversed
- olfactory dysfunction (in words) ([1]; αSynWT-mice, 6 and 8 weeks after surgery): rescued olfactory dysfunction
- Relative LC3B-II experession (normalized to β-actin) (N27-A cells; Figure 3f, w/ MPP+, 0h): 0.779 and 0.690 and 0.799
- Relative LC3B-II experession (normalized to β-actin) (N27-A cells; Figure 3f, w/ MPP+, 4h): 1.160 and 0.971 and 1.153
- Relative LC3B-II experession (normalized to β-actin) (N27-A cells; Figure 3f, w/o MPP+, 0h): 0.728 and 0.654 and 0.714
- Relative LC3B-II experession (normalized to β-actin) (N27-A cells; Figure 3f, w/o MPP+, 4h): 0.866 and 0.789 and 0.873
- Relative LC3B-II experession (normalized to β-actin) (N27-A cells; Figure 3g, w/ MPP+, 0h): 1.116 and 1.094 and 1.285
- Relative LC3B-II experession (normalized to β-actin) (N27-A cells; Figure 3g, w/ MPP+, 4h): 0.639 and 0.745 and 0.861
- Relative LC3B-II experession (normalized to β-actin) (N27-A cells; Figure 3g, w/o MPP+, 0h): 1.157 and 1.166 and 1.326
- Relative LC3B-II experession (normalized to β-actin) (N27-A cells; Figure 3g, w/o MPP+, 4h): 0.499 and 0.504 and 0.579
- autophagic flux (in words) (N27-A cells; MPP+ 1 mM): significantly restored autophagy
- autophagic flux (in words) (N27-A cells; without MPP+): proceeded
- brain permeability (in words) ([2]; SD rats, oral, 20 mg/kg, plasma and brain homogenates): penetrated into the brain well
- concentration at […] ([2]; male, SD, rat, brain, oral, 2 mg/mL, time 00:15:00, individual replicates, read-out: Brain): 0 ng/g
- concentration at 0.5 h ([2]; male, SD, rat, brain, oral, 2 mg/mL, time 0:30:00, individual replicates, read-out: Brain): 0 ng/g
- concentration at 8 h ([2]; male, SD, rat, brain, oral, 2 mg/mL, time 8:00:00, individual replicates): 28.7 ng/g
- concentration at […] ([2]; male, SD, rat, plasma, oral, 2 mg/mL, time 00:15:00, individual replicates, read-out: Plasma): 0 ng/mL
- concentration at 0.5 h ([2]; male, SD, rat, plasma, oral, 2 mg/mL, time 0:30:00, individual replicates, read-out: Plasma): 0 ng/mL
- Brain [2, 3]: 0 ng/g
- Plasma [2, 3]: 0 ng/mL
- Brain [2, 4]: 0 ng/g
- Plasma [2, 4]: 0 ng/mL
- B/P ratio [2, 5]: 0.033 and 0.167 and 0.126
- Brain [2, 5]: 3.39 ng/g and 9.12 ng/g and 2.65 ng/g
- Plasma [2, 5]: 20.3 ng/mL and 72.3 ng/mL and 80.8 ng/mL
- B/P ratio [2, 6]: 0.395 and 0.077 and 0.505
- Brain [2, 6]: 7.24 ng/g and 13.5 ng/g and 6 ng/g
- Plasma [2, 6]: 94 ng/mL and 26.7 ng/mL and 15.2 ng/mL
- B/P ratio [2, 7]: 0.137 and 0.126 and 1.648
- Brain [2, 7]: 27.2 ng/g and 13.5 ng/g and 7.16 ng/g
- Plasma [2, 7]: 216 ng/mL and 8.18 ng/mL and 52.2 ng/mL
- B/P ratio [2, 8]: 0.074 and 0.166 and 2.055
- Brain [2, 8]: 19.9 ng/g and 24 ng/g and 4.36 ng/g
- Plasma [2, 8]: 120 ng/mL and 11.7 ng/mL and 58.6 ng/mL
- B/P ratio [2, 9]: 0.112 and 3.845 and 0.261
- Brain [2, 9]: 16.8 ng/g and 20.2 ng/g
- Plasma [2, 9]: 7.47 ng/mL and 64.3 ng/mL and 180 ng/mL
- B/P ratio [2, 10]: 10.245 and 0.957 and 6.289
- Brain [2, 10]: 61.6 ng/g and 20 ng/g and 36 ng/g
- Plasma [2, 10]: 64.4 ng/mL and 3.18 ng/mL and 3.51 ng/mL
